Assay: Henry solubility constant Hcp at 298.15 K (mol/(m3 Pa))
Conditions: reference: Zhang and Pawliszyn (1993)

First: Cc1ccccc1C [1,2-dimethylbenzene]
Second: Cc1ccccc1 [methylbenzene]
The “Henry solubility constant Hcp” value of the first is higher: 0.0027 for the first, 0.0015 for the second.

Going from Cc1ccc(C)cc1 [1,4-dimethylbenzene] to c1ccc2ccccc2c1 [naphthalene], the “Henry solubility constant Hcp” value rises from 0.0017 to 0.021.

Going from c1cc2c3c(cccc3c1)CC2 [acenaphthene] to c1ccc2c(c1)ccc1ccccc12 [phenanthrene], the “Henry solubility constant Hcp” value rises from 0.11 to 0.25.

Going from c1ccc2cc3ccccc3cc2c1 [anthracene] to c1ccc2c(c1)ccc1c3ccccc3ccc21 [chrysene], the “Henry solubility constant Hcp” value rises from 0.11 to 9.4.

Compared with c1ccccc1 [benzene], CCc1ccccc1 [ethylbenzene] is higher in “Henry solubility constant Hcp” value: 0.0015 for the first, 0.0025 for the second.
